Publication PMC4904262 (ACS Medicinal Chemistry Letters, 2016)
Where two headings read alike, the source gives them in different places.

Columns and labels:
[1] = mouse, in vivo, iv, 0.2 mg/kg
CK1GAMMA3 = CK1GAMMA3 (Homo sapiens, UniProt Q9Y6M4); details: 1 µM, ATP at Km
MRCKALPHA = MRCKALPHA (Homo sapiens, UniProt Q5VT25); details: 1 µM, ATP at Km
in vitro [2] = details: mouse, microsomes
GSK3BETA = GSK3BETA (Homo sapiens, UniProt P49841); details: 1 µM, ATP at Km
[3] = target: CDK19 in the presence of cyclin C (Homo sapiens, UniProt Q9BWU1); assay: biochemical; details: read-out: CDK19 residence time ± SD
SGK3 = SGK3 (Homo sapiens, UniProt Q96BR1); details: 1 µM, ATP at Km
PRKCQ = PRKCQ (Homo sapiens, UniProt Q04759); details: 1 µM, ATP at Km
phospho-STAT1^SER727 = details: single 5 mg/kg po dose; SW620 xenograft
ALK4 = ALK4 (Homo sapiens, UniProt P36896); details: 1 µM, ATP at Km
in vivo [4] = details: mouse
in vitro [5] = details: mouse, plasma
MAPK1 = MAPK1 (Homo sapiens, UniProt P27361); details: 1 µM, ATP at Km
[6] = rat, in vivo, 0.2 mg/kg
in vivo [7] = details: rat
GSK3ALPHA = GSK3ALPHA (Homo sapiens, UniProt P49840); details: 1 µM, ATP at Km
in vitro [8] = details: rat, microsomes
NLK = NLK (Homo sapiens, UniProt Q9UBE8); details: 1 µM, ATP at Km
MAPKAP-K2 = MAPKAP-K2 (Homo sapiens, UniProt P49137); details: 1 µM, ATP at Km
LCK = LCK (Homo sapiens, UniProt P06239); details: LCK (second listing, page 11); 1 µM; ATP at Km
cMET (Y1248D) = cMET (Y1248D) (Homo sapiens, UniProt P08581, Y1230D); details: 1 µM, ATP at Km
ABL (H396P) = ABL (H396P) (Homo sapiens, UniProt P00519, H396P); details: 1 µM, ATP at Km
EGFR(T790M) = EGFR(T790M) (Homo sapiens, UniProt P00533, T790M); details: 1 µM, ATP at Km
SRC(T341M) = SRC(T341M) (Homo sapiens, UniProt P12931, T341M); details: 1 µM, ATP at Km
FMS(Y969C) = FMS(Y969C) (Homo sapiens, UniProt P07333, Y969C); details: 1 µM, ATP at Km
EGFR(L861Q) = EGFR(L861Q) (Homo sapiens, UniProt P00533, L861Q); details: 1 µM, ATP at Km
CKIT(V560G) = CKIT(V560G) (Homo sapiens, UniProt P10721, V560G); details: 1 µM, ATP at Km
PI3 KINASE (P65A) = details: 1 µM, ATP at Km
EGFR(T790M,L858R) = EGFR(T790M,L858R) (Homo sapiens, UniProt P00533, L858R/T790M); details: 1 µM, ATP at Km
CK1(Y) = details: 1 µM, ATP at Km
ABL (Q252H) = ABL (Q252H) (Homo sapiens, UniProt P00519, Q252H); details: 1 µM, ATP at Km
[…](D842V) = […](D842V) (Homo sapiens, UniProt P16234, D842V); details: 1 µM, ATP at Km
SRC(1-530) = SRC(1-530) (Homo sapiens, UniProt P12931); details: 1 µM, ATP at Km
CKIT(V654A) = CKIT(V654A) (Homo sapiens, UniProt P10721, V654A); details: 1 µM, ATP at Km
FGFR1(V561M) = FGFR1(V561M) (Homo sapiens, UniProt P11362, V561M); details: 1 µM, ATP at Km
ABL(T315I) = ABL(T315I) (Homo sapiens, UniProt P00519, T315I); details: 1 µM, ATP at Km
CKIT(D816H) = CKIT(D816H) (Homo sapiens, UniProt P10721, D816H); details: 1 µM, ATP at Km
CKIT(D816V) = CKIT(D816V) (Homo sapiens, UniProt P10721, D816V); details: 1 µM, ATP at Km
cMET (D1246N) = cMET (D1246N) (Homo sapiens, UniProt P08581, D1228N); details: 1 µM, ATP at Km
cMET (D1246H) = cMET (D1246H) (Homo sapiens, UniProt P08581, D1228H); details: 1 µM, ATP at Km
RET(V804M) = RET(V804M) (Homo sapiens, UniProt P07949, V804M); details: 1 µM, ATP at Km

Chain of GSK3BETA (P49841 whole entry): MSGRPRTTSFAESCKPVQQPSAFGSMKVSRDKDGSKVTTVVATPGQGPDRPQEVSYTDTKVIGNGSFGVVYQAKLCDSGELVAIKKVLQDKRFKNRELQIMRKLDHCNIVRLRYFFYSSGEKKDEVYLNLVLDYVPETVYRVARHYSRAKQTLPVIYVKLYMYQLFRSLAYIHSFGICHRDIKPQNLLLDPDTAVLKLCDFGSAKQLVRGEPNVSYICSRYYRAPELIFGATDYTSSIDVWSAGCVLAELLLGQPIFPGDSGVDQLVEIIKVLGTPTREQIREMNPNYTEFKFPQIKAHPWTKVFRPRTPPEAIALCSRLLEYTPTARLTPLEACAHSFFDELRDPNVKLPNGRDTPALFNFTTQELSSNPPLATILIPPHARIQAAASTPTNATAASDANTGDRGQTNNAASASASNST
Chain of SGK3 (Q96BR1 whole entry): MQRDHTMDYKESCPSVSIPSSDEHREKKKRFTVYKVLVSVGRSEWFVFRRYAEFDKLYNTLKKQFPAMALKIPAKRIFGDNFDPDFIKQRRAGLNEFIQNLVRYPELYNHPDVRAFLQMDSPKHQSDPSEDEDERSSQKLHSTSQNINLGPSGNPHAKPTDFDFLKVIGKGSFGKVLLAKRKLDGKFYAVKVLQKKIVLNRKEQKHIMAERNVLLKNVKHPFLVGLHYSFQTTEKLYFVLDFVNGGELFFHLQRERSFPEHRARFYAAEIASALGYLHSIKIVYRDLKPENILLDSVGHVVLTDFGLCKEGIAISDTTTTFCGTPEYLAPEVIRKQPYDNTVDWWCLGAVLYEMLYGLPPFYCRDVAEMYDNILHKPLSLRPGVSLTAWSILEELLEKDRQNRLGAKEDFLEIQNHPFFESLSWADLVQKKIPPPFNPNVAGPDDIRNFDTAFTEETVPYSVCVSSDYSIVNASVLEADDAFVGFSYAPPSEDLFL
Chain of GSK3ALPHA (P49840 whole entry): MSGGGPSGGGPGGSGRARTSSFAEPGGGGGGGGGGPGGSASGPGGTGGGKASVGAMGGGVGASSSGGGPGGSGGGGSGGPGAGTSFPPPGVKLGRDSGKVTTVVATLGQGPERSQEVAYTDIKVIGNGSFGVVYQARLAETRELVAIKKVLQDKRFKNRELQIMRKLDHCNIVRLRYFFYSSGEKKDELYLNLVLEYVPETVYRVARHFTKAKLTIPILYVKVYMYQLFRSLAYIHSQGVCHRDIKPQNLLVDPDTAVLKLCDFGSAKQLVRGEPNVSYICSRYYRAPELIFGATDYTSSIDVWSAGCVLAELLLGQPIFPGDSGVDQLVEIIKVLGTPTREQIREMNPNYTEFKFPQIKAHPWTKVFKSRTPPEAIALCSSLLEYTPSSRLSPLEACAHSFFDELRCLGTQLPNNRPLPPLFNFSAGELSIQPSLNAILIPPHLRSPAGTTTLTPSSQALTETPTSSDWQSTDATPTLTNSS
Chain of ALK4 (P36896 24-505): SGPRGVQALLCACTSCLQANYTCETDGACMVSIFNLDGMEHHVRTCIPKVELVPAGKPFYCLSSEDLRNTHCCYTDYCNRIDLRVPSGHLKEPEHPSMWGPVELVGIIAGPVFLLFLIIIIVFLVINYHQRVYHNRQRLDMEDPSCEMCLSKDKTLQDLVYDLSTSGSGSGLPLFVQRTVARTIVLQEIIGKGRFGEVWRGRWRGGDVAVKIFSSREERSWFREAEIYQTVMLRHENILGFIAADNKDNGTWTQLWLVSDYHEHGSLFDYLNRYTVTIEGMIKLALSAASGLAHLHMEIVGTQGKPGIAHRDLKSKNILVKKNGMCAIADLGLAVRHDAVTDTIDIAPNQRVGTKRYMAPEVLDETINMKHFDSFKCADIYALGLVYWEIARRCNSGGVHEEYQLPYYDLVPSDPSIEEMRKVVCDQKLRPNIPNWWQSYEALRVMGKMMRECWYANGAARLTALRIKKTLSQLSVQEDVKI
Chain of CK1GAMMA3 (Q9Y6M4 whole entry): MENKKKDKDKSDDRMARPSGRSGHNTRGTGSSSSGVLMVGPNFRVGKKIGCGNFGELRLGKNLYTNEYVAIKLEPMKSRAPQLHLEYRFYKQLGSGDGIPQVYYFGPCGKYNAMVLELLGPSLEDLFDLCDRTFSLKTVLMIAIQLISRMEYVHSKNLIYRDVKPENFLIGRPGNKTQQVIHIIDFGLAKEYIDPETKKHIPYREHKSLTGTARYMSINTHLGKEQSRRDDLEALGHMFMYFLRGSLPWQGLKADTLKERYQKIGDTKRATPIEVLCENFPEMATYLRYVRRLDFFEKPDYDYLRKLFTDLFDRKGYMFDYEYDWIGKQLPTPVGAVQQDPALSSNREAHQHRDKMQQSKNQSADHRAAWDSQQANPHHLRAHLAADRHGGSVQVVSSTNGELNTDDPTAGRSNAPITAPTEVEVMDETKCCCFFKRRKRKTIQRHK
Chain of MRCKALPHA (Q5VT25 whole entry): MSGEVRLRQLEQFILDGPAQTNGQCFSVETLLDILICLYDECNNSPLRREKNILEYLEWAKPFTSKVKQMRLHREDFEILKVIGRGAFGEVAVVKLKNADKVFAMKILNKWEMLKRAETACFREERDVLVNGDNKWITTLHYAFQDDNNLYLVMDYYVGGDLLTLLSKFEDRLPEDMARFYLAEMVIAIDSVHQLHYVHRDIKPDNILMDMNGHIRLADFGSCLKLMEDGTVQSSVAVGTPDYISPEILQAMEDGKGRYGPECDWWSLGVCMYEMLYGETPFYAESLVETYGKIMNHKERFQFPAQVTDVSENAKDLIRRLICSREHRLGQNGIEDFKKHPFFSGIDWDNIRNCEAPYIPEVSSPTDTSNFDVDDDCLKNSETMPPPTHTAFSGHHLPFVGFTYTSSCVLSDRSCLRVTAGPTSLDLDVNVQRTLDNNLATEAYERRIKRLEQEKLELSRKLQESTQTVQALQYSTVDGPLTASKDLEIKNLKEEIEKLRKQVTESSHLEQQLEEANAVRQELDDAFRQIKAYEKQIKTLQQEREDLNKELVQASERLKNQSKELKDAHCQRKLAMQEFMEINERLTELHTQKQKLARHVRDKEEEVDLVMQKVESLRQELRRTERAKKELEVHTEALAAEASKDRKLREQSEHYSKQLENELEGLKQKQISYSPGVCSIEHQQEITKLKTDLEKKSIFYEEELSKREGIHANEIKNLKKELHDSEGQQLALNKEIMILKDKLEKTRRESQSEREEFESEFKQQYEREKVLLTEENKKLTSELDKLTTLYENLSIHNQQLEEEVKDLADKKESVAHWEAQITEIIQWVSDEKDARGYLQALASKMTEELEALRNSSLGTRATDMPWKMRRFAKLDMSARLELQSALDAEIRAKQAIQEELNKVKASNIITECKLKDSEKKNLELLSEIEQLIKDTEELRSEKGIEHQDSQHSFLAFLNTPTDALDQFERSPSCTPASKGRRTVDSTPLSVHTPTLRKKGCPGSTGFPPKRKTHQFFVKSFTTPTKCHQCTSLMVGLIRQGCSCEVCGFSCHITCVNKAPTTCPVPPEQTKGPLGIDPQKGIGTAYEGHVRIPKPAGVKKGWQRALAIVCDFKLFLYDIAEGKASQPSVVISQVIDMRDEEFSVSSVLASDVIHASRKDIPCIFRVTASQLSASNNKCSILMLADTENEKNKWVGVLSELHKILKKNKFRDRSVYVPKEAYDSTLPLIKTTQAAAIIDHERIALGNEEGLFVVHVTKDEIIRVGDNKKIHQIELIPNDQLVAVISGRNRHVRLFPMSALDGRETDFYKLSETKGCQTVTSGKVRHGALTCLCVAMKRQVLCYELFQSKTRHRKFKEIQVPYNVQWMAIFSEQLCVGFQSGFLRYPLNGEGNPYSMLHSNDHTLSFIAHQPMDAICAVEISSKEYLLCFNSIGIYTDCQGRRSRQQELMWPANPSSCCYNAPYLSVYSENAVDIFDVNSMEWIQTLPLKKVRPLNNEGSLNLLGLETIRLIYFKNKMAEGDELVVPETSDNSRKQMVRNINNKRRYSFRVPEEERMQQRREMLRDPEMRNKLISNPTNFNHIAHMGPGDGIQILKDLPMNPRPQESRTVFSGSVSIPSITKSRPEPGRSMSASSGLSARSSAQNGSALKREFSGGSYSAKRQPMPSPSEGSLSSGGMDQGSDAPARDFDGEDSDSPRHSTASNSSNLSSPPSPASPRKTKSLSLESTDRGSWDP
Chain of NLK (Q9UBE8 whole entry): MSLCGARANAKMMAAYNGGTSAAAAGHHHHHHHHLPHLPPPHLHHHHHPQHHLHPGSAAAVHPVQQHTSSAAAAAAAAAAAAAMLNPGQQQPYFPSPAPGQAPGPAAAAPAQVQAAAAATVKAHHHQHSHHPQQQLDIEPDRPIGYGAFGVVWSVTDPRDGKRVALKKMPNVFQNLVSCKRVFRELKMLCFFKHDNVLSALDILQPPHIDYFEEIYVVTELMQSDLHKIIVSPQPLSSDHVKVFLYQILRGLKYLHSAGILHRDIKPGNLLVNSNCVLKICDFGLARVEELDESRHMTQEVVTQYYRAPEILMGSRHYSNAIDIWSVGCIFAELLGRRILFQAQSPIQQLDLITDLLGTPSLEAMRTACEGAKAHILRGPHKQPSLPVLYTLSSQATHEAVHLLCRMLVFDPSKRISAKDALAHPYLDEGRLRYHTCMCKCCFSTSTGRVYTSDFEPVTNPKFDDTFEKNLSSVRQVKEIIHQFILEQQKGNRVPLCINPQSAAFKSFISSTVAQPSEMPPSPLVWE
Chain of MAPK1 (P27361 whole entry): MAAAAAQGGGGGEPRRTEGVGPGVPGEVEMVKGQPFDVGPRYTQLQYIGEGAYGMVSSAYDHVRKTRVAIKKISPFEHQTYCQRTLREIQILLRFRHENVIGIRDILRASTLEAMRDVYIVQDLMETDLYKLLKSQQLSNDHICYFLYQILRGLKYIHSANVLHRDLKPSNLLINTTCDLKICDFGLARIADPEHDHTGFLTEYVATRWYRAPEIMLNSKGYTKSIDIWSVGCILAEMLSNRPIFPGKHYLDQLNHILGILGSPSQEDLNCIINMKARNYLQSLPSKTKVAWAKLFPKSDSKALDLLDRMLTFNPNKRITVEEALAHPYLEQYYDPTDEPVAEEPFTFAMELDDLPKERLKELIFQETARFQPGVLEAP

For `COC1CN(C(=O)c2ccc3c(N)ncc(-c4ccc(-c5cnn(C)c5)cc4)c3n2)C1` [Compound 51], which “% in feces (iv dosing)” value [1] is on record?
The value was 31%.

And the percentage effect (CK1GAMMA3)?
The percentage effect was -18%.

And the percentage effect (MRCKALPHA)?
The percentage effect was 2%.

And the microsomal CLint at 1 µM (in vitro [2])?
The microsomal CLint at 1 µM was 52 µL/min/mg.

What about the percentage effect (GSK3BETA) of the same compound?
Its percentage effect is 1%.

And the residence time [3]?
The residence time was 31 ± 3 min.

And the percentage effect (SGK3)?
The percentage effect was -13%.

And the percentage effect (PRKCQ)?
Its percentage effect is 5%.

And the “inhibition of phospho-STAT1^SER727 in tumor xenograft” value (phospho-STAT1^SER727)?
Its value is “time-dependent inhibition of phospho-STAT1^SER727”.

And the percentage effect (ALK4)?
Its percentage effect is 9%.

And the Vd (in vivo [4]; iv, 0.2 mg/kg)?
Its Vd is 1.87 L/kg.

What about the clearance (in vivo [4]; iv, 0.2 mg/kg) of the same compound?
The clearance was 32.3 mL/min/kg.

What about the bioavailability (in vivo [4]; po, 0.5 mg/kg) of the same compound?
The bioavailability was 18%.

And the fraction unbound (in vitro [5])?
The fraction unbound was 0.038.

What about the percentage effect (MAPK1) of the same compound?
The percentage effect was -13%.

What about the “% in feces (iv dosing)” value [6] of the same compound?
Its value is 36%.

And the Vd (in vivo [7]; iv, 0.2 mg/kg)?
The Vd was 2.13 L/kg.

What about the clearance (in vivo [7]; iv, 0.2 mg/kg) of the same compound?
Its clearance is 21.5 mL/min/kg.

What about the bioavailability (in vivo [7]; po, 0.5 mg/kg) of the same compound?
Its bioavailability is 57%.

And the percentage effect (GSK3ALPHA)?
Its percentage effect is -17%.

What about the microsomal CLint at 1 µM (in vitro [8]) of the same compound?
Its microsomal CLint at 1 µM is 26 µL/min/mg.

What about the percentage effect (NLK) of the same compound?
The percentage effect was -3%.

And the percentage effect (MAPKAP-K2)?
Its percentage effect is 6%.

For `COC1CN(C(=O)c2ccc3c(N)ncc(-c4ccc(-c5cnn(C)c5)cc4)c3c2)C1` [Compound 59], which percentage effect (LCK) is on record?
Its percentage effect is 4%.

And the percentage effect (cMET (Y1248D))?
Its percentage effect is 19%.

What about the percentage effect (ABL (H396P)) of the same compound?
The percentage effect was 5%.

And the percentage effect (EGFR(T790M))?
Its percentage effect is -2%.

And the percentage effect (CK1GAMMA3)?
The percentage effect was 19%.

And the percentage effect (SRC(T341M))?
The percentage effect was -18%.

What about the percentage effect (FMS(Y969C)) of the same compound?
The percentage effect was -31%.

And the percentage effect (MRCKALPHA)?
The percentage effect was 0%.

And the percentage effect (EGFR(L861Q))?
Its percentage effect is -9%.

What about the percentage effect (GSK3BETA) of the same compound?
The percentage effect was -9%.

What about the percentage effect (CKIT(V560G)) of the same compound?
The percentage effect was -21%.

And the percentage effect (SGK3)?
The percentage effect was 9%.

What about the percentage effect (PRKCQ) of the same compound?
The percentage effect was -12%.

What about the percentage effect (PI3 KINASE (P65A)) of the same compound?
Its percentage effect is -4%.

And the percentage effect (EGFR(T790M,L858R))?
The percentage effect was -2%.

And the percentage effect (CK1(Y))?
The percentage effect was 4%.

And the percentage effect (ALK4)?
The percentage effect was 8%.

What about the percentage effect (ABL (Q252H)) of the same compound?
The percentage effect was 9%.

And the percentage effect ([…](D842V))?
The percentage effect was 1%.

What about the percentage effect (MAPK1) of the same compound?
The percentage effect was -20%.

What about the percentage effect (SRC(1-530)) of the same compound?
Its percentage effect is -3%.

And the percentage effect (CKIT(V654A))?
Its percentage effect is 6%.

And the percentage effect (GSK3ALPHA)?
The percentage effect was -29%.

What about the percentage effect (FGFR1(V561M)) of the same compound?
Its percentage effect is -6%.

And the percentage effect (ABL(T315I))?
Its percentage effect is 5%.

What about the percentage effect (CKIT(D816H)) of the same compound?
The percentage effect was -1%.

What about the percentage effect (CKIT(D816V)) of the same compound?
The percentage effect was -3%.

And the percentage effect (NLK)?
The percentage effect was -5%.

What about the percentage effect (cMET (D1246N)) of the same compound?
Its percentage effect is 3%.

What about the percentage effect (cMET (D1246H)) of the same compound?
The percentage effect was 1%.

What about the percentage effect (RET(V804M)) of the same compound?
Its percentage effect is 7%.
